From patent US20110086923A1, “Method to increase oxygen in male and female sexual organs through the topical use of perfluorocarbons” (priority 2009, published 2011) come the findings set out here.

The nature of the series: Physical properties of F-tert-butylcyclohexane. It counts as physicochemical. The source says: Oxycyte™ is a perfluorocarbon emulsion oxygen carrier. The active ingredient in Oxycyte™, perfluoro(tert-butylcyclohexane) (C10F20, MW-500), also known as F-tert-butylcyclohexane or “FtBu”, is a saturated alicyclic PFC.
Oxycyte™ can be used as a PFC composition in the methods and uses described herein. Physical properties of F-tert-butylcyclohexane are as follows: […]

Structures are written as SMILES.

For `FC(F)(F)C(C(F)(F)F)(C(F)(F)F)C1(F)C(F)(F)C(F)(F)C(F)(F)C(F)(F)C1(F)F` [Perfluoro(tert-butylcyclohexane), perfluoro(tert-butylcyclohexane)], the Density is recorded as 1.97 g/mL, the “Kinematic Viscosity” value was 5.378 cP, the lipophilicity result is reported as “non-lipophilic” and the water solubility result was “non-water soluble”. In addition, for the setting “25° C.”, the “Vapor Pressure @ 25° C.” value turned out to be 3.8 mmHg. Further, where the note is “37° C.”, the “Vapor Pressure @ 37° C.” value was 4.4 mmHg.
